Reference: ChEMBL document CHEMBL5107956, “Natural products from mangrove sediments-derived microbes: Structural diversity, bioactivities, biosynthesis, and total synthesis” (Eur J Med Chem, 2022)
≈ marks a conversion by molar mass, not a printed value.

How the values were obtained:
HeLa = test: Cytotoxicity against human HeLa cells assessed as cell growth inhibition; type: functional, cell-based
MCF7 = test: Cytotoxicity against human MCF7 cells assessed as cell growth inhibition; type: functional, cell-based
Influenza A virus = test: Antiviral activity against Influenza A virus H1N1; type: functional, organism-based
HCT-116 = test: Cytotoxicity against human HCT-116 cells assessed as cell growth inhibition by MTT assay; type: functional, cell-based
Staphylococcus aureus [1] = test: Antibacterial activity against methicillin-resistant Staphylococcus aureus assessed as bacterial cell growth inhibition by agar dilution method; type: functional
Candida albicans = test: Antifungal activity against Candida albicans ATCC 10231 assessed as fungal growth inhibition by agar dilution method; type: functional
Staphylococcus aureus [2] = test: Antibacterial activity against Staphylococcus aureus S014 assessed as bacterial cell growth inhibition by agar dilution method; type: functional
Bacillus subtilis = test: Antibacterial activity against Bacillus subtilis S028 assessed as bacterial cell growth inhibition by agar dilution method; type: functional
Escherichia coli = test: Antibacterial activity against Escherichia coli S002 assessed as bacterial cell growth inhibition by agar dilution method; type: functional
[3] = target: Prostaglandin G/H synthase 2 (Homo sapiens) (UniProt P35354); test: Inhibition of COX2 (unknown origin) at 20 nM relative to control
Sequence of Prostaglandin G/H synthase 2 (Homo sapiens) (P35354 whole entry, looked up): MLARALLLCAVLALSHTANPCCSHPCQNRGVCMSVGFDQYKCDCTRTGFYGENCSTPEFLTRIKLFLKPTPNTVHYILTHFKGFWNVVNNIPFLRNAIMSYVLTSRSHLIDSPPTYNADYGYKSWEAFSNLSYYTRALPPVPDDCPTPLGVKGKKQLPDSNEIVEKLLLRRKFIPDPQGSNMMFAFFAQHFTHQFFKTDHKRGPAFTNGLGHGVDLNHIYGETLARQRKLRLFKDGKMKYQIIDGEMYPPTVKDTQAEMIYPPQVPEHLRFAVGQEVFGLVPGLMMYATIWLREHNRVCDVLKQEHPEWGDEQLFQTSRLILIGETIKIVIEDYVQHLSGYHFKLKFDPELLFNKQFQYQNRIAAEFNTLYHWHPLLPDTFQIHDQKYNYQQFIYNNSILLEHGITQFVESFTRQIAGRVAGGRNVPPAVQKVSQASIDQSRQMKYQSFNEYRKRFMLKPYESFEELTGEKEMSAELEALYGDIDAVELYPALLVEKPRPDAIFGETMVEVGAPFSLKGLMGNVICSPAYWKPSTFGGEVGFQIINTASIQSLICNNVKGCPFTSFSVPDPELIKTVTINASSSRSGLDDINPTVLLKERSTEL

HL-60 = test: Antiproliferative activity against human HL-60 cells assessed as cell growth inhibition measured after 72 hrs by CCK-8 assay; type: functional, cell-based; settings: HL-60, 72 h

## CC[C@@H]1[C@@H](C)O[C@@](O)([C@@H](C)[C@H](O)[C@H](C)[C@H]2OC(=O)/C=C/C=C/[C@H](C)[C@@H]([C@@H](C)[C@@H](O)[C@@H](C)[C@@]3(O)C[C@@H](O[C@H]4C[C@H](O)[C@H](O)[C@H](C)O4)[C@H](CC)[C@@H](C)O3)OC(=O)/C=C/C=C/[C@@H]2C)C[C@H]1OC
HeLa
  IC50: 190 nM
MCF7
  IC50: 190 nM

## CC(=O)C[C@H](c1nc2ccccc2c(=O)n1[C@@H]1C[C@]2(OC1=O)c1ccccc1N1C(=O)C(C)(C)N(O)[C@H]12)C(C)C
Influenza A virus
  IC50: 82000 nM

## CC[C@@H]1[C@@H](C)O[C@@](OC)([C@@H](C)[C@H](O)[C@H](C)[C@H]2OC(=O)/C=C/C=C/[C@H](C)[C@@H]([C@@H](C)[C@@H](O)[C@H](C)[C@@]3(O)C[C@@H](O[C@H]4C[C@H](O)[C@H](O)[C@H](C)O4)[C@H](CC)[C@@H](C)O3)OC(=O)/C=C/C=C/[C@@H]2C)C[C@H]1O[C@H]1C[C@H](O)[C@H](O)[C@H](C)O1
HeLa
  IC50: 190 nM
MCF7
  IC50: 190 nM

## CC[C@@H]1[C@@H](C)O[C@@](O)([C@@H](C)[C@H](O)[C@H](C)[C@H]2OC(=O)/C=C/C=C/[C@H](C)[C@@H]([C@@H](C)[C@@H](O)[C@H](C)[C@@]3(O)C[C@@H](O[C@H]4C[C@H](O)[C@H](O)[C@H](C)O4)[C@H](C)[C@@H](C)O3)OC(=O)/C=C/C=C/[C@@H]2C)C[C@H]1O[C@H]1C[C@H](O)[C@H](O)[C@H](C)O1
HeLa
  IC50: 190 nM
MCF7
  IC50: 190 nM

## C/N=C(\NC)NCCC/C=C/CCCC(C)C1OC(=O)/C(C)=C/C=C/C(C)C(O)CC(O)C(C)C(O)CCC(C)C(O)CC2(O)OC(CC(OC(=O)CC(=O)O)CC(O)CC(O)CC(O)/C(C)=C/C=C/C1C)CC(O)C2O (configuration not stated)
HCT-116
  IC50: 1.81 µg/mL
Staphylococcus aureus [1]
  MBC: 8 µg/mL (≈ 7.3 µM)
  MIC: 4 µg/mL (≈ 3.65 µM)
Candida albicans
  MIC: 1.65 µg/mL (≈ 1.5 µM)

## CN[C@@H]1O[C@H]2C[C@@](C)([C@@H]1OC)n1c3ccccc3c3c4c(c5c6ccccc6n2c5c31)C(=O)NC4
HCT-116
  IC50: 40 nM

## CC[C@@H]1[C@@H](C)O[C@@](O)([C@@H](C)[C@H](O)[C@H](C)[C@H]2OC(=O)/C=C/C=C/[C@H](C)[C@@H]([C@@H](C)[C@@H](O)[C@H](C)[C@@]3(O)C[C@@H](O[C@H]4C[C@H](O)[C@H](O)[C@H](C)O4)[C@H](CC)[C@@H](C)O3)OC(=O)/C=C/C=C/[C@@H]2C)C[C@H]1O[C@H]1C[C@H](O)[C@H](O)[C@H](C)O1
HeLa
  IC50: 190 nM
MCF7
  IC50: 190 nM

## C/N=C(/N)NCCC/C=C/CCC[C@H](C)[C@@H]1OC(=O)/C(C)=C/C=C/[C@H](C)[C@@H](O)C[C@H](O)[C@@H](C)[C@H](O)CC[C@H](C)[C@@H](O)C[C@@]2(O)O[C@@H](C[C@@H](OC(=O)CCCCC(C)C)C[C@H](O)C[C@@H](O)C[C@H](O)/C(C)=C/C=C/[C@H]1C)C[C@@H](O)[C@@H]2O
Staphylococcus aureus [2]
  MIC: 0.39 µg/mL (≈ 0.347 µM)
Bacillus subtilis
  MIC: 0.2 µg/mL (≈ 0.178 µM)
Escherichia coli
  MIC: 3.13 µg/mL (≈ 2.79 µM)
Candida albicans
  MIC: 1.65 µg/mL (≈ 1.47 µM)

## O=C(CNC(=O)c1ccccc1-n1c(=O)[nH]c2ccccc2c1=O)c1ccccc1
[3]
  inhibition: > 65%

## C/C1=C\C=C\C(C)C(O)CC(O)C(C)C(O)CCC(C)C(O)CC2(O)OC(CC(OC(=O)CC(=O)O)CC(O)CC(O)CC(O)/C(C)=C/C=C/C(C)C(C(C)CCC/C=C/CCCNC(=N)N)OC1=O)CC(O)C2O (configuration not stated)
HCT-116
  IC50: 1.81 µg/mL
Staphylococcus aureus [1]
  MBC: 8 µg/mL (≈ 7.49 µM)
  MIC: 4 µg/mL (≈ 3.74 µM)
Candida albicans
  MIC: 1.65 µg/mL (≈ 1.54 µM)

## C/N=C(/N)NCCC/C=C/CCC[C@H](C)[C@@H]1OC(=O)/C(C)=C/C=C/[C@H](C)[C@@H](O)C[C@H](O)[C@@H](C)[C@H](O)CC[C@H](C)[C@@H](O)C[C@@]2(O)O[C@@H](C[C@@H](OC(=O)CCCCCCCC(C)C)C[C@H](O)C[C@@H](O)C[C@H](O)/C(C)=C/C=C/[C@H]1C)C[C@@H](O)[C@@H]2O
Staphylococcus aureus [2]
  MIC: 0.39 µg/mL (≈ 0.335 µM)
Bacillus subtilis
  MIC: 0.2 µg/mL (≈ 0.172 µM)
Escherichia coli
  MIC: 3.13 µg/mL (≈ 2.69 µM)
Candida albicans
  MIC: 1.65 µg/mL (≈ 1.42 µM)

## O=C1NC2c3nc4ccccc4c(=O)n3[C@H]1C[C@@]21c2ccccc2N2C(=O)[C@@H]3CCCN3[C@H]21
Influenza A virus
  IC50: 82000 nM

## CS[C@H]1NC(=O)[C@@](Cc2ccc(CCC=C(C)C)cc2)(SC)N(C)C1=O
HeLa
  IC50: 4200 nM

## COC(=O)Nc1ccc(C)c(NC(=O)N(C)[C@@H]2O[C@H]3C[C@@](C)([C@@H]2OC)n2c4ccccc4c4c5c(c6c7ccccc7n3c6c42)C(=O)NC5)c1
HCT-116
  IC50: 370 nM

## C/C=C/[C@H](O)[C@H](C)/C=C(C)/C=C/C/C(C)=C/Cc1[nH]c(OC)cc(=O)c1C
HL-60
  IC50: < 100 nM

## C/N=C(\NC)NCCC/C=C/CCC[C@H](C)[C@@H]1OC(=O)/C(C)=C/C=C/[C@H](C)[C@@H](O)C[C@H](O)[C@@H](C)[C@H](O)CC[C@H](C)[C@@H](O)C[C@@]2(O)O[C@@H](C[C@@H](OC(=O)C(N)C(C)C)C[C@H](O)C[C@@H](O)C[C@H](O)/C(C)=C/C=C/[C@H]1C)C[C@@H](O)[C@@H]2O (some centres not stated)
Staphylococcus aureus [2]
  MIC: 0.39 µg/mL (≈ 0.352 µM)
Bacillus subtilis
  MIC: 0.2 µg/mL (≈ 0.18 µM)
Escherichia coli
  MIC: 3.13 µg/mL (≈ 2.82 µM)
Candida albicans
  MIC: 1.65 µg/mL (≈ 1.49 µM)

## CC[C@@H]1[C@@H](C)O[C@@](OC)([C@@H](C)[C@H](O)[C@H](C)[C@H]2OC(=O)/C=C/C=C/[C@H](C)[C@@H]([C@@H](C)[C@@H](O)[C@H](C)[C@@]3(OC)C[C@@H](O[C@H]4C[C@H](O)[C@H](O)[C@H](C)O4)[C@H](CC)[C@@H](C)O3)OC(=O)/C=C/C=C/[C@@H]2C)C[C@H]1O[C@H]1C[C@H](O)[C@H](O)[C@H](C)O1
HeLa
  IC50: 190 nM
MCF7
  IC50: 190 nM
